Values joined by “and” are separate entries in the source; they are usually repeats but may differ in a detail not shown here. Equal values may be shown once.
Key:
[1] = Solubility of Pd complexes in ACSF by UV-vis spectroscopy; conditions: 1 h at 4 °C
[2] = tested on: GFP-positive Purkinje cells infected with AAV-L7-mGlu1^CBC; assay: chemLTD recording in GFP-positive Purkinje cells, slices infected with AAV-L7-mGlu1^CBC; format: cell-based, mouse; conditions: for PF-EPSC amplitude normalized to time 0, individual Purkinje cells / PF-EPSC amplitude normalized to time 0, mean of cells: AAV-L7-mGlu1CBC

## Cc1ccnc(-c2cc(COCCCS(=O)(=O)[O-])ccn2)c1.[Cl][Pd][Cl].[Na+] [Pd(sulfo-bpy)]
[1]
  Solubility: concentration over which linearity of absorbance at 312 nm is observed: over 1 mM
[2]; 1 μM Pd(sulfo-bpy), t = 31−35 min
  chemLTD: normalized PF-EPSC amplitude: 66 ± 5%
[2]; Time 11 min
  PF-EPSC amplitude normalized to time 0, individual Purkinje cells: 0.7232 and 0.9829 and 0.3767 and 0.7388 and 0.7918 and 0.8459 and 0.9915
  PF-EPSC amplitude normalized to time 0, mean of cells: 0.7787
[2]; Time 12 min
  PF-EPSC amplitude normalized to time 0, individual Purkinje cells: 0.6425 and 0.801 and 0.5915 and 0.6003 and 0.6904 and 0.8371 and 0.8565
  PF-EPSC amplitude normalized to time 0, mean of cells: 0.717
[2]; Time 13 min
  PF-EPSC amplitude normalized to time 0, individual Purkinje cells: 0.6471 and 0.7787 and 0.7013 and 0.6809 and 0.7803 and 0.6727 and 0.8538
  PF-EPSC amplitude normalized to time 0, mean of cells: 0.7307
[2]; Time 14 min
  PF-EPSC amplitude normalized to time 0, individual Purkinje cells: 0.6499 and 0.8303 and 0.7622 and 0.6113 and 0.7456 and 0.6953 and 0.8046
  PF-EPSC amplitude normalized to time 0, mean of cells: 0.7285
[2]; Time 15 min
  PF-EPSC amplitude normalized to time 0, individual Purkinje cells: 0.6409 and 0.6767 and 0.8117 and 0.6223 and 0.7031 and 0.7146 and 0.8496
  PF-EPSC amplitude normalized to time 0, mean of cells: 0.717
[2]; Time 16 min
  PF-EPSC amplitude normalized to time 0, individual Purkinje cells: 0.6376 and 0.7978 and 1.028 and 0.6558 and 0.8297 and 0.5765 and 0.8295
  PF-EPSC amplitude normalized to time 0, mean of cells: 0.765
[2]; Time 17 min
  PF-EPSC amplitude normalized to time 0, individual Purkinje cells: 0.5747 and 0.6569 and 0.9755 and 0.6298 and 0.8796 and 0.5758 and 0.8309
  PF-EPSC amplitude normalized to time 0, mean of cells: 0.7319
[2]; Time 18 min
  PF-EPSC amplitude normalized to time 0, individual Purkinje cells: 0.6181 and 0.7827 and 0.9415 and 0.633 and 0.8865 and 0.5391 and 0.791
  PF-EPSC amplitude normalized to time 0, mean of cells: 0.7417
[2]; Time 19 min
  PF-EPSC amplitude normalized to time 0, individual Purkinje cells: 0.6525 and 0.7374 and 0.8732 and 0.5834 and 0.9022 and 0.5765 and 0.7947
  PF-EPSC amplitude normalized to time 0, mean of cells: 0.7314
[2]; Time 20 min
  PF-EPSC amplitude normalized to time 0, individual Purkinje cells: 0.6393 and 0.699 and 0.8317 and 0.5962 and 0.9401 and 0.5543 and 0.7516
  PF-EPSC amplitude normalized to time 0, mean of cells: 0.716
[2]; Time 21 min
  PF-EPSC amplitude normalized to time 0, individual Purkinje cells: 0.6574 and 0.7237 and 1.073 and 0.5004 and 0.9213 and 0.5453 and 0.8183
  PF-EPSC amplitude normalized to time 0, mean of cells: 0.7484
[2]; Time 22 min
  PF-EPSC amplitude normalized to time 0, individual Purkinje cells: 0.698 and 0.6854 and 0.7706 and 0.5876 and 1.007 and 0.5965 and 0.7681
  PF-EPSC amplitude normalized to time 0, mean of cells: 0.7305
[2]; Time 23 min
  PF-EPSC amplitude normalized to time 0, individual Purkinje cells: 0.6936 and 0.7382 and 0.9273 and 0.5926 and 0.9601 and 0.5241 and 0.7745
  PF-EPSC amplitude normalized to time 0, mean of cells: 0.7443
[2]; Time 24 min
  PF-EPSC amplitude normalized to time 0, individual Purkinje cells: 0.6834 and 0.653 and 0.9054 and 0.6969 and 0.9426 and 0.569 and 0.7678
  PF-EPSC amplitude normalized to time 0, mean of cells: 0.7455
[2]; Time 25 min
  PF-EPSC amplitude normalized to time 0, individual Purkinje cells: 0.6421 and 0.6906
  PF-EPSC amplitude normalized to time 0, mean of cells: 0.7344
[2]; Time 26 min
  PF-EPSC amplitude normalized to time 0, mean of cells: 0.7041
[2]; Time 27 min
  PF-EPSC amplitude normalized to time 0, mean of cells: 0.6979
